Structures are written as SMILES.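 Test compounds were applied to cells in 96-well plates for 48 hours at 5 doses. GI50: concentration for 50% inhibition of growth. TGI is the concentration that stops growth completely.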

Common to all, as to assay: NCI anticancer screen, dose series, 48 h
Experiment [1] has as its system OVCAR-5 ovarian.
Experiment [2] has as its system SF-539 CNS.
The subject of experiment [3] is KM12 colon.
Experiment [4] relates to HT29 colon.
In experiment [5] the test system is MDA-MB-231 breast.
For experiment [6], the system named is LOX IMVI melanoma.
Experiment [7] has as its system T-47D breast.
Experiment [8] has as its system HCT-15 colon.
For experiment [9], the system named is OVCAR-4 ovarian.
Experiment [10] deals with MCF7 breast.

`O=Cc1c[nH]c2ccc(-c3csc4ccccc34)cc12`: the GI50 in [1] was 88.1 µM; in experiment [2], 2.41 µM; in [3], 3.39 µM; in experiment [4] it was 3.34 µM; in experiment [5], 6.28 µM; in [6], 3.87 µM. In addition, the GI50 in [7] was 9.15 µM; in experiment [8] it was 2.98 µM; in experiment [9], 5.12 µM; in experiment [10] it was 3.48 µM. Moreover, the TGI in [1] is greater than 100 µM; in experiment [2] it was 7.52 µM; in experiment [3] it was greater than 100 µM; in experiment [4], greater than 100 µM; in experiment [5], greater than 100 µM; in [6], greater than 100 µM. The TGI in experiment [7], in [8], in experiment [9] and in experiment [10] was greater than 100 µM each time.
Turning to `S=C(Nc1ccc(Cl)cc1)SC1CCCCC1`, the TGI was 62 µM in [1]; 61.3 µM in experiment [2]; 95.7 µM in experiment [3]; 50.9 µM in experiment [4]; greater than 100 µM in [5]; 42.8 µM in experiment [6]. In addition, the TGI in [7] is greater than 100 µM; in experiment [8], 69.4 µM; in [9], greater than 100 µM; in experiment [10], 40.6 µM.
Take `COc1cccc(C(C#N)NC23CC4CC(CC(C4)C2)C3)c1` (stereo not given): the TGI in experiment [1], in [2], in [3], in experiment [4], in experiment [5] and in experiment [6] was greater than 100 µM each time. Besides, the TGI in experiment [7], in experiment [8], in experiment [9] and in experiment [10] was greater than 100 µM throughout.
As for `Cc1ccc(C2NC(=S)N3C(c4ccc(C)cc4)NC(=S)N23)cc1` (stereo not given), the GI50 is 14.7 µM in [1]; 4.12 µM in experiment [2]; 4.04 µM in [3]; 2.58 µM in [4]; 9.16 µM in [5]; 8.84 µM in experiment [6]. For the same molecule, the GI50 is 5.24 µM in experiment [7], 3.7 µM in [8], 9.89 µM in experiment [9] and 2.73 µM in experiment [10]. The TGI in experiment [1] was 28.2 µM; in experiment [2] it was 13.7 µM; in experiment [3], 17.4 µM; in [4] it was 10.2 µM; in [5] it was 24 µM; in [6], 22.1 µM. Also, the TGI in experiment [7] came out at 19.6 µM; in experiment [8], 15.3 µM; in experiment [9], 21.9 µM; in experiment [10], 12.9 µM.
Turning to `NC(Cc1ccc(O)cc1)C(=O)N/N=C/c1ccc(N(CCCl)CCCl)cc1` (stereo not given), the GI50 in experiment [1] was 27.4 µM; in experiment [2], 4.26 µM; in experiment [3], 24.6 µM; in [4], 28.5 µM; in [5], 5.25 µM; in [6], 5.73 µM. For the same molecule, the GI50 in [7] was 10.1 µM; in experiment [8], 38.6 µM; in [9] it was 28.4 µM; in experiment [10], 7.52 µM. Besides, the TGI in experiment [1] was greater than 100 µM; in experiment [2], 68.3 µM; in experiment [3], greater than 100 µM; in experiment [4], greater than 100 µM; in [5], 32.6 µM; in experiment [6] it was 68.4 µM. For the same molecule, the TGI in experiment [7], in experiment [8], in experiment [9] and in [10] was greater than 100 µM in each case.
Turning to `O=c1c(-c2ccc3c(c2)OCO3)coc2c(CO)c(O)ccc12`, the GI50 is 3.3 µM in experiment [1]; 2.28 µM in experiment [2]; 3.24 µM in experiment [3]; 16.9 µM in experiment [4]; 2.01 µM in experiment [5]; 1.28 µM in experiment [6]. Moreover, the GI50 is 2.48 µM in experiment [7], 2.35 µM in [8], 3.39 µM in experiment [9] and 2.72 µM in [10]. The TGI amounted to 10.5 µM in experiment [1]; 6.46 µM in experiment [2]; 13.3 µM in experiment [3]; 44.8 µM in experiment [4]; 5.09 µM in experiment [5]; 3.41 µM in [6]. The TGI amounted to 14.9 µM in experiment [7], 6.46 µM in [8], 18.1 µM in [9] and 25.4 µM in [10].
On to `NS(=O)(=O)c1cccc(-c2cc3ccncc3cc2OCc2ccccc2)c1`, for which the GI50 in [1] was 14.8 µM; in experiment [2], 8.62 µM; in experiment [3], 10.7 µM; in experiment [4], 6.05 µM; in experiment [5], 7.37 µM; in experiment [6], 12.4 µM. The GI50 in experiment [7] is 12.7 µM; in experiment [8], 7.67 µM; in experiment [9], 11.5 µM; in [10] it was 10.5 µM. Moreover, the TGI in experiment [1] was greater than 25 µM; in [2], greater than 25 µM; in experiment [3], greater than 25 µM; in experiment [4], 16.8 µM; in [5] it was greater than 23.9 µM; in [6] it was greater than 25 µM. Besides, the TGI in [7], in experiment [8], in experiment [9] and in [10] was greater than 25 µM in each case.
With `O=C1c2cccc3cccc(c23)C(=O)N1CC#Cc1ccc2c3c(cccc13)C(=O)N(CCN1CCNCC1)C2=O`, the GI50 in experiment [1] is 2.82 µM; in experiment [2], 1.82 µM; in experiment [3], 2.12 µM; in experiment [4] it was 2 µM; in experiment [5] it was 1.85 µM; in experiment [6] it was 1.94 µM. In addition, the GI50 in [7] is 2.03 µM; in experiment [8], 14.9 µM; in [9], 1.93 µM; in [10] it was 1.8 µM. The TGI was found to be 10.3 µM in [1]; 3.39 µM in experiment [2]; 4.6 µM in [3]; 3.96 µM in experiment [4]; 3.67 µM in experiment [5]; 3.87 µM in experiment [6]. Also, the TGI in experiment [7] is 5.11 µM; in [8], greater than 100 µM; in experiment [9], 3.82 µM; in [10], 3.72 µM.

Source of the values: PubChem BioAssay (NCI).
